According to patent publication US20070254917A1, “INTRACELLULAR RECEPTOR MODULATOR COMPOUNDS AND METHODS” (priority 2004, published 2007):

target: T1, human glucocorticoid receptor protein (GR) (Homo sapiens, UniProt P04150); assay: Glucocorticoid binding assay ([3H]dexamethasone displacement, GR lysate); conditions: baculovirus-expressed GR lysate from Sf21 cells; 2-4 nM [3H]dexamethasone; 16 hours at 4° C.; Cheng-Prusoff from IC50
T1 construct: made in house; host or cells: Sf21 insect cells (baculovirus)
T1 sequence (P04150 1-777): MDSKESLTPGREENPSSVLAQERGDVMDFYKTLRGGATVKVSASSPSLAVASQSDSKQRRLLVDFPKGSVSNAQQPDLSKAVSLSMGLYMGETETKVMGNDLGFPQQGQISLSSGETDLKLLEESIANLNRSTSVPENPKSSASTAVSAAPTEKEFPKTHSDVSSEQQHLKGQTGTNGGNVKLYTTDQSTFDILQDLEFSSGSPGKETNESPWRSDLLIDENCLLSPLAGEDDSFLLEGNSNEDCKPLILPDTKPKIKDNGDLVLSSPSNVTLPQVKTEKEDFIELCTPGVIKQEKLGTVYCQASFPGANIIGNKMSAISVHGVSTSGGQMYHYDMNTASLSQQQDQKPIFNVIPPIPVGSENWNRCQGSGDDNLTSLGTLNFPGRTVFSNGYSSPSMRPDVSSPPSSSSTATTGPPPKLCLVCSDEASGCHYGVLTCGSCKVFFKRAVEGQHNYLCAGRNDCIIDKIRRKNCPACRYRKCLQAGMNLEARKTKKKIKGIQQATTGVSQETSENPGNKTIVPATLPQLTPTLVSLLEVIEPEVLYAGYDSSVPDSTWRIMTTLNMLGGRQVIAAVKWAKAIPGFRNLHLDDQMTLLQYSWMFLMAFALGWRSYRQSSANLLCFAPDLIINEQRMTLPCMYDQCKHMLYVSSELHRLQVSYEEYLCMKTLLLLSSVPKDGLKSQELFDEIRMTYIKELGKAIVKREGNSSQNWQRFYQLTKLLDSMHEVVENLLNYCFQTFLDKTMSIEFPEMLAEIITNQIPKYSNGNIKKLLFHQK
Description: A baculovirus expression plasmid comprising cDNA encoding the human glucocorticoid receptor protein (GR) was prepared using standard techniques. […] That expression plasmid was co-transfected together with wild type Autographa californica multiple nuclear polyhedrosis virus DNA into Spodopter frugiperda-21 (Sf-21) cells to generate recombinant virus comprising GR cDNA. […] That recombinant virus comprising GR cDNA was collected.
A suspension culture of uninfected Sf21 cells was grown to a density of 1.2×10^6 cells/ml and then infected with the recombinant virus comprising GR cDNA at a multiplicity of infection of 2. Those infected Sf21 cells were incubated for 48 hours and then collected by centrifugation at 1000×g for 10 minutes at 4° C. The resulting cell pellets were resuspended in lysis buffer (50 mM Potassium Phosphate buffer, pH 7.0, 10 mM Monothioglycerol, 5 mM DTT, 20 mM Sodium Molybdate, 1 mM PMSF, 1 μg/mL aprotinin, and 10 μg/mL leupeptin) and incubated for 15 minutes on ice. Those resuspended cell pellets were homogenized using a Dounce homogenizer and a B pestle. A volume of 2 M KCl was added to the homogenized cell pellets to a final concentration of 0.4 M. The resulting GR lysates were centrifuged at 100,000×g for 60 min at 4° C. and stored for use in binding assays.
Binding assay samples were prepared in separate mini-tubes in a 96-well format at 4° C. […] Each reference compound and test compound was assayed at varying concentrations, ranging from 0 to 10^−5 M. Each concentration of each reference compound and each test compound was assayed in triplicate. The assay samples were incubated for 16 hours at 4° C.
After incubation, 200 μl of 6.25% hydroxylapatite in assay buffer was added to each assay sample to precipitate the protein. The assay samples were then centrifuged and the supernatants were discarded. The resulting pellets were washed twice with assay buffer lacking DTT. Radioactivity in counts per minute (CPM) of each washed pellet was determined by liquid scintillation counter (MicroBeta™, Wallach).

| Compound | Ki |
| --- | --- |
| COc1cccc(OC)c1-c1cc(C)c2c(c1Cl)C(C)CC(C)(C)N2 (racemic) [Compound 104, (±)-5-Chloro-6-(2,6-dimethoxyphenyl)-1,2,3,4-tetrahydro-2,2,4,8-tetramethylquinoline] | 34 nM |
| Cc1cc(-c2csc3ccccc23)c(Cl)c2c1NC(C)(C)CC2C (racemic) [Compound 109, (±)-6-(Benzothiophen-3-yl)-5-chloro-1,2,3,4-tetrahydro-2,2,4,8-tetramethylquinoline] | 4 nM |
| Cc1cc(-c2cc3ccccc3s2)c(Cl)c2c1NC(C)(C)CC2C (racemic) [Compound 116, (±)-6-(Benzothiophen-2-yl)-5-chloro-1,2,3,4-tetrahydro-2,2,4,8-tetramethylquinoline] | 420 nM |
| Cc1cc(-c2ccccc2Cl)c(Cl)c2c1NC(C)(C)CC2C (racemic) [Compound 118, (±)-5-Chloro-6-(2-chlorophenyl)-1,2,3,4-tetrahydro-2,2,4,8-tetramethylquinoline] | 22 nM |
| CC(=O)c1ccccc1-c1cc(C)c2c(c1Cl)C(C)CC(C)(C)N2 (racemic) [Compound 119, (±)-6-(2-Acetylphenyl)-5-chloro-1,2,3,4-tetrahydro-2,2,4,8-tetramethylquinoline] | 97 nM |
| COc1ccc(Cl)cc1-c1cc(C)c2c(c1Cl)C(C)CC(C)(C)N2 (racemic) [Compound 121, (±)-5-Chloro-6-(5-chloro-2-methoxyphenyl)-1,2,3,4-tetrahydro-2,2,4,8-tetramethylquinoline] | 14 nM |
| Cc1cc(-c2ccccc2[N+](=O)[O-])c(Cl)c2c1NC(C)(C)CC2C (racemic) [Compound 122, (±)-5-Chloro-1,2,3,4-tetrahydro-2,2,4,8-tetramethyl-6-(2-nitrophenyl)quinoline] | 78 nM |
| Cc1cc(-c2cccc(C(F)(F)F)c2F)c(Cl)c2c1NC(C)(C)CC2C (racemic) [Compound 130, (±)-5-Chloro-6-[2-fluoro-3-(trifluoromethyl)phenyl]-1,2,3,4-tetrahydro-2,2,4,8-tetramethylquinoline] | 81 nM |
| Cc1cc(-c2cccc3ccccc23)c(Cl)c2c1NC(C)(C)CC2C (racemic) [Compound 135, (±)-5-Chloro-1,2,3,4-tetrahydro-2,2,4,8-tetramethyl-6-(naphthal-1-yl)quinoline] | 8.8 nM |
| Cc1cc(-c2ccc(F)c3c(C)c[nH]c23)c(Cl)c2c1NC(C)(C)CC2C (racemic) [Compound 147, (±)-5-Chloro-6-(4-fluoro-3-methylindol-7-yl)-1,2,3,4-tetrahydro-2,2,4,8-tetramethylquinoline] | 2 nM |
| COc1c(O)cccc1-c1cc(C)c2c(c1Cl)C(C)CC(C)(C)N2 (racemic) [Compound 151, (±)-5-Chloro-1,2,3,4-tetrahydro-6-(3-hydroxy-2-methoxyphenyl)-2,2,4,8-tetramethylquinoline] | 3.6 nM |
| Cc1cc(-c2cccc3c2CCC3=NO)c(Cl)c2c1NC(C)(C)CC2C (racemic) [Compound 154, (±)-5-Chloro-6-(1-hydroxyiminoindan-4-yl)-1,2,3,4-tetrahydro-2,2,4,8-tetramethylquinoline] | 0.4 nM |
| Cc1cc(-c2cccc(C#N)c2C)c(Cl)c2c1NC(C)(C)CC2C (racemic) [Compound 155, (±)-5-Chloro-6-(3-cyano-2-methylphenyl)-1,2,3,4-tetrahydro-2,2,4,8-tetramethylquinoline] | 1.4 nM |
| COc1c(-c2cc(C)c3c(c2Cl)C(C)CC(C)(C)N3)cccc1[N+](=O)[O-] (racemic) [Compound 156, (±)-5-Chloro-1,2,3,4-tetrahydro-6-(2-methoxy-3-nitrophenyl)-2,2,4,8-tetramethylquinoline] | 2.9 nM |
| Cc1cc(-c2ccsc2)c(Cl)c2c1NC(C)(C)C(O)C2C (racemic) [Compound 160, (±)-5-Chloro-1,2,3,4-tetrahydro-3β-hydroxy-2,2,4α,8-tetramethyl-6-(thiophen-3-yl)quinoline] | 130 nM |
| Cc1cc(-c2c(C)noc2C)c(Cl)c2c1NC(C)(C)C(O)C2C (racemic) [Compound 164, (±)-5-Chloro-6-(3,5-dimethylisoxazol-4-yl)-1,2,3,4-tetrahydro-3β-hydroxy-2,2,4α,8-tetramethylquinoline] | 3.3 nM |
| COc1c(C#N)cccc1-c1cc(C)c2c(c1Cl)C(C)C(O)C(C)(C)N2 (racemic) [Compound 165, (±)-5-Chloro-6-(3-cyano-2-methoxyphenyl)-1,2,3,4-tetrahydro-3β-hydroxy-2,2,4α,8-tetramethylquinoline] | 2.7 nM |
| COc1c(C#N)cccc1-c1cc(C)c2c(c1Cl)C(C)C(=O)C(C)(C)N2 (racemic) [Compound 179, (±)-5-Chloro-6-(3-cyano-2-methoxyphenyl)-1,4-dihydro-2,2,4,8-tetramethyl-2H-quinolin-3-one] | 2.6 nM |
| CC(C)=CCC1(C)C(=O)C(C)(C)Nc2c(C)cc(-c3c(C)noc3C)c(Cl)c21 (racemic) [Compound 185, (±)-5-Chloro-4-(3,3-dimethylallyl)-6-(3,5-dimethylisoxazol-4-yl)-1,4-dihydro-2,2,4,8-tetramethyl-2H-quinolin-3-one] | 2.5 nM |
| COc1c(C#N)cccc1-c1cc(C)c2c(c1Cl)C(C)C(O)C(C)(C)N2 (racemic) [Compound 191, (±)-5-Chloro-6-(3-cyano-2-methoxyphenyl)-1,2,3,4-tetrahydro-3α-hydroxy-2,2,4α,8-tetramethylquinoline] | 4.8 nM |
| Cc1cc(-c2c(C)noc2C)c(Cl)c2c1NC(C)(C)C(O)C2C (racemic) [Compound 192, (±)-5-Chloro-6-(3,5-dimethylisoxazol-4-yl)-1,2,3,4-tetrahydro-3α-hydroxy-2,2,4α,8-tetramethylquinoline] | 9.4 nM |
| Cc1cc(-c2csc3ccccc23)c(Cl)c2c1NC(C)(C)C(O)C2C (racemic) [Compound 194, (±)-6-(Benzothiophen-3-yl)-5-chloro-1,2,3,4-tetrahydro-3α-hydroxy-2,2,4α,8-tetramethylquinoline] | 13 nM |
| CC(C)=CCOc1c(-c2cc(C)c3c(c2Cl)C(C)CC(C)(C)N3)cccc1[N+](=O)[O-] (racemic) [Compound 203, (±)-5-Chloro-1,2,3,4-tetrahydro-2,2,4,8-tetramethyl-6-[2-(methylbut-2-enyloxy)-3-nitrophenyl]quinoline] | 56 nM |
| Cc1cc(-c2cccc3c2OCC(=O)N3)c(Cl)c2c1NC(C)(C)CC2C (racemic) [Compound 204, (±)-6-(2H-1,4-Benzoxazin-3(4H)-on-8-yl)-5-chloro-1,2,3,4-tetrahydro-2,2,4,8-tetramethylquinoline] | 26 nM |
| Cc1cc(-c2cccc3c2OCC(=O)N3C)c(Cl)c2c1NC(C)(C)CC2C (racemic) [Compound 205, (±)-5-Chloro-1,2,3,4-tetrahydro-2,2,4,8-tetramethyl-6-(4-methyl-2H-1,4-benzoxazin-3(4H)-on-8-yl)quinoline] | 87 nM |
| Cc1cc(-c2cccc3c2NCC3)c(Cl)c2c1NC(C)(C)CC2C (racemic) [Compound 210, (±)-5-Chloro-1,2,3,4-tetrahydro-6-(indolin-7-yl)-2,2,4,8-tetramethylquinoline] | 5.7 nM |
| Cc1cc(-c2cccc3ccccc23)c(Cl)c2c1NC(C)(C)CC2(C)O (racemic) [Compound 215, (±)-5-Chloro-1,2,3,4-tetrahydro-4-hydroxy-2,2,4,8-tetramethyl-6-(naphthal-1-yl)quinoline] | 5.9 nM |
